Assay results: the supplement of paper PMC11208160
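Also: IS621 recombinase and bridge RNA in Escherichia coli cells.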

Test: recombinant barcode read abundance after kanamycin selection (control-corrected) (log10(CPM+1)); higher = more efficient recombination; sequences stand for … in AGTGCAGAGAAAATCGGCCAGTTTTCTCTGCCTGCAGTCCGCATGCCGT…AGATTTATGCAGCGGACTGCCTTTCTCCCAAAGTGATAAACCGGACAGTATCATGGACCGGTTTTCCCGGTAATCCGTATTTGCAAGGTTGGTTTCACT; site = the 11-nt target
Summary of the method: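 Recombination efficiency was calculated from barcode counts at recombinant junctions, normalized to counts per million, averaged and corrected by the control. Each value is given as log10(CPM+1). The constructs were Gibson-cloned oligos (promoter, target, barcode, J23119-driven first 104 bridge RNA bases) in a vector with the remaining 73 bp and a T7-inducible recombinase, co-electroporated into E. coli with a donor plasmid and plated in duplicate on chloramphenicol/ampicillin LB agar (control) or chloramphenicol/ampicillin/kanamycin with 0.1 mM IPTG.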
With “GTCCACTCTTGGGTTCTAACCTGTTGCAC (site GTCCACCCTCT)” the “recombinant barcode read abundance (log10)” value was 0.0658.
For “GTCCACTCTTGGGTTCTAACCTGTTGCAC (site GTCCACTCTGT)”, the “recombinant barcode read abundance (log10)” value was 2.21.
For “GTCCAGTCTTGGGTTCTAACCTGTTGCGT (site GTCCACTCTAA)”, the “recombinant barcode read abundance (log10)” value was 0.0578.
In the case of “GTCCAGTCTTGGGTTCTAACCTGTTGCGT (site GTCCAGTCTAC)”, the “recombinant barcode read abundance (log10)” value is reported as 3.16.
In the case of “GTCCATTCTTGGGTTCTAACCTGTTGCAT (site GGACATTCTAT)”, the “recombinant barcode read abundance (log10)” value is reported as 0.101.
For “GTCCATTCTTGGGTTCTAACCTGTTGCAT (site GTCCATTCTAT)”, the “recombinant barcode read abundance (log10)” value was 1.56.
In the case of “GTCCTATCTTGGGTTCTAACCTGTTGCCA (site ACGGATCCTAT)”, the “recombinant barcode read abundance (log10)” value is reported as 0.0705.
For “GTCCTATCTTGGGTTCTAACCTGTTGCCA (site GTCCTATCTTG)”, the “recombinant barcode read abundance (log10)” value was 0.66.
In the case of “GTCGAACCTTGGGTTCTAACCTGTTGCTA (site GTCGAACCTTA)”, the “recombinant barcode read abundance (log10)” value is reported as 1.79.
With “GTCGAACCTTGGGTTCTAACCTGTTGCTA (site GTCGTAGCTTA)” the “recombinant barcode read abundance (log10)” value was 0.0873.
For “GTCGCGCCTTGGGTTCTAACCTGTTGCCT (site GTCGCGACTAG)”, the “recombinant barcode read abundance (log10)” value was 0.221.
For “GTCGCGCCTTGGGTTCTAACCTGTTGCCT (site GTCGCGCCTAG)”, the “recombinant barcode read abundance (log10)” value was 0.271.
With “GTCGCGCCTTGGGTTCTAACCTGTTGCCT (site GTCGCGGCTAG)” the “recombinant barcode read abundance (log10)” value was 0.219.
In the case of “GTCGCGCCTTGGGTTCTAACCTGTTGCCT (site GTCGCGTCTAG)”, the “recombinant barcode read abundance (log10)” value is reported as 0.58.
In the case of “GTCGGAACTTGGGTTCTAACCTGTTGCCT (site GTCGGAACTAG)”, the “recombinant barcode read abundance (log10)” value is reported as 1.73.
With “GTCGGAACTTGGGTTCTAACCTGTTGCCT (site GTCGGCACTAG)” the “recombinant barcode read abundance (log10)” value was 0.329.
For “GTCGGAACTTGGGTTCTAACCTGTTGCCT (site GTCGGGACTAG)”, the “recombinant barcode read abundance (log10)” value was 0.174.
With “GTCGGAACTTGGGTTCTAACCTGTTGCCT (site GTCGGTACTAG)” the “recombinant barcode read abundance (log10)” value was 0.0137.
For “GTCGGTACTTGGGTTCTAACCTGTTGCCT (site GTCGGAACTAG)”, the “recombinant barcode read abundance (log10)” value was 0.115.
In the case of “GTCGGTACTTGGGTTCTAACCTGTTGCCT (site GTCGGCACTAG)”, the “recombinant barcode read abundance (log10)” value is reported as 0.0645.
For “GTCGGTACTTGGGTTCTAACCTGTTGCCT (site GTCGGGACTAG)”, the “recombinant barcode read abundance (log10)” value was 0.0319.
For “GTCGGTACTTGGGTTCTAACCTGTTGCCT (site GTCGGTACTAG)”, the “recombinant barcode read abundance (log10)” value was 0.952.
For “GTCGTCACTTGGGTTCTAACCTGTTGCCT (site GTCGTCACTAG)”, the “recombinant barcode read abundance (log10)” value was 0.334.
For “GTCGTCACTTGGGTTCTAACCTGTTGCCT (site GTCGTCCCTAG)”, the “recombinant barcode read abundance (log10)” value was 0.0716.
With “GTCGTCACTTGGGTTCTAACCTGTTGCCT (site GTCGTCGCTAG)” the “recombinant barcode read abundance (log10)” value was 0.15.
For “GTCGTCACTTGGGTTCTAACCTGTTGCCT (site GTCGTCTCTAG)”, the “recombinant barcode read abundance (log10)” value was 0.0772.
In the case of “GTCGTCCCTTGGGTTCTAACCTGTTGCCT (site GTCGTCACTAG)”, the “recombinant barcode read abundance (log10)” value is reported as 0.0509.
In the case of “GTCGTCCCTTGGGTTCTAACCTGTTGCCT (site GTCGTCCCTAG)”, the “recombinant barcode read abundance (log10)” value is reported as 0.315.
For “GTCGTCCCTTGGGTTCTAACCTGTTGCCT (site GTCGTCGCTAG)”, the “recombinant barcode read abundance (log10)” value was 0.0602.
In the case of “GTCGTCCCTTGGGTTCTAACCTGTTGCCT (site GTCGTCTCTAG)”, the “recombinant barcode read abundance (log10)” value is reported as 0.0914.
For “GTCGTCTCTTGGGTTCTAACCTGTTGCCT (site GTCGTCACTAG)”, the “recombinant barcode read abundance (log10)” value was 0.0143.
In the case of “GTCGTCTCTTGGGTTCTAACCTGTTGCCT (site GTCGTCCCTAG)”, the “recombinant barcode read abundance (log10)” value is reported as 0.463.
In the case of “GTCGTCTCTTGGGTTCTAACCTGTTGCCT (site GTCGTCGCTAG)”, the “recombinant barcode read abundance (log10)” value is reported as 0.136.
For “GTCGTCTCTTGGGTTCTAACCTGTTGCCT (site GTCGTCTCTAG)”, the “recombinant barcode read abundance (log10)” value was 1.65.
With “GTCGTTACTTGGGTTCTAACCTGTTGCCT (site GTCGTTACTAG)” the “recombinant barcode read abundance (log10)” value was 0.339.
In the case of “GTCGTTACTTGGGTTCTAACCTGTTGCCT (site TAGCAATCTTA)”, the “recombinant barcode read abundance (log10)” value is reported as 0.22.
In the case of “GTCGTTCCTTGGGTTCTAACCTGTTGCCT (site GTAGTTCCTAG)”, the “recombinant barcode read abundance (log10)” value is reported as 0.535.
For “GTCGTTCCTTGGGTTCTAACCTGTTGCCT (site GTCGTTCCTAG)”, the “recombinant barcode read abundance (log10)” value was 0.153.
For “GTCTAGGCTTGGGTTCTAACCTGTTGCTG (site GCCGAGGCTCA)”, the “recombinant barcode read abundance (log10)” value was 0.242.
For “GTCTAGGCTTGGGTTCTAACCTGTTGCTG (site GTCTAGGCTCA)”, the “recombinant barcode read abundance (log10)” value was 0.876.
For “GTCTATACTTGGGTTCTAACCTGTTGCCA (site GTCTATACTTG)”, the “recombinant barcode read abundance (log10)” value was 0.571.
For “GTCTATACTTGGGTTCTAACCTGTTGCCA (site TTCTAGACTTG)”, the “recombinant barcode read abundance (log10)” value was 0.0838.
In the case of “GTCTATACTTGGGTTCTAACCTGTTGCCT (site GTATATACTAG)”, the “recombinant barcode read abundance (log10)” value is reported as 0.168.
In the case of “GTCTATACTTGGGTTCTAACCTGTTGCCT (site GTCTATACTAG)”, the “recombinant barcode read abundance (log10)” value is reported as 0.987.
In the case of “GTCTATACTTGGGTTCTAACCTGTTGCCT (site GTGTATACTAG)”, the “recombinant barcode read abundance (log10)” value is reported as 0.0645.
With “GTCTATACTTGGGTTCTAACCTGTTGCCT (site GTTTATACTAG)” the “recombinant barcode read abundance (log10)” value was 0.311.
For “GTCTATGCTTGGGTTCTAACCTGTTGCGT (site GTCTAAGCTAA)”, the “recombinant barcode read abundance (log10)” value was 0.0746.
In the case of “GTCTATGCTTGGGTTCTAACCTGTTGCGT (site GTCTATGCTAC)”, the “recombinant barcode read abundance (log10)” value is reported as 0.0203.
For “GTCTCCTCTTGGGTTCTAACCTGTTGCCT (site GTCACCTCTAG)”, the “recombinant barcode read abundance (log10)” value was 0.0265.
With “GTCTCCTCTTGGGTTCTAACCTGTTGCCT (site GTCCCCTCTAG)” the “recombinant barcode read abundance (log10)” value was 2.26.
In the case of “GTCTCCTCTTGGGTTCTAACCTGTTGCCT (site GTCGCCTCTAG)”, the “recombinant barcode read abundance (log10)” value is reported as 0.0306.
With “GTCTCCTCTTGGGTTCTAACCTGTTGCCT (site GTCTCCTCTAG)” the “recombinant barcode read abundance (log10)” value was 1.62.
For “GTCTCTACTTGGGTTCTAACCTGTTGCCT (site GCCTCTTCTAG)”, the “recombinant barcode read abundance (log10)” value was 0.0271.
With “GTCTCTACTTGGGTTCTAACCTGTTGCCT (site GTCTCTACTAG)” the “recombinant barcode read abundance (log10)” value was 0.221.
In the case of “GTGAACTCTTGGGTTCTAACCTGTTGCTG (site GTGAACTCTCA)”, the “recombinant barcode read abundance (log10)” value is reported as 2.33.
In the case of “GTGAACTCTTGGGTTCTAACCTGTTGCTG (site GTGATCCCTCA)”, the “recombinant barcode read abundance (log10)” value is reported as 0.0703.
In the case of “GTGACTGCTTGGGTTCTAACCTGTTGCGT (site CACTAGACTCG)”, the “recombinant barcode read abundance (log10)” value is reported as 0.0198.
For “GTGACTGCTTGGGTTCTAACCTGTTGCGT (site GTGACTGCTAC)”, the “recombinant barcode read abundance (log10)” value was 1.46.
With “GTGAGGTCTTGGGTTCTAACCTGTTGCAT (site GTGAGGTCTAA)” the “recombinant barcode read abundance (log10)” value was 0.46.
With “GTGAGGTCTTGGGTTCTAACCTGTTGCAT (site GTGAGGTCTAC)” the “recombinant barcode read abundance (log10)” value was 0.709.
For “GTGAGGTCTTGGGTTCTAACCTGTTGCAT (site GTGAGGTCTAG)”, the “recombinant barcode read abundance (log10)” value was 0.375.
In the case of “GTGAGGTCTTGGGTTCTAACCTGTTGCAT (site GTGAGGTCTAT)”, the “recombinant barcode read abundance (log10)” value is reported as 2.71.
In the case of “GTGAGGTCTTGGGTTCTAACCTGTTGCGT (site GTGAGGTCTAA)”, the “recombinant barcode read abundance (log10)” value is reported as 0.231.
With “GTGAGGTCTTGGGTTCTAACCTGTTGCGT (site GTGAGGTCTAC)” the “recombinant barcode read abundance (log10)” value was 2.08.
For “GTGAGGTCTTGGGTTCTAACCTGTTGCGT (site GTGAGGTCTAG)”, the “recombinant barcode read abundance (log10)” value was 0.586.
With “GTGAGGTCTTGGGTTCTAACCTGTTGCGT (site GTGAGGTCTAT)” the “recombinant barcode read abundance (log10)” value was 1.69.
In the case of “GTGCAAACTTGGGTTCTAACCTGTTGCCT (site GTGCAAACTAG)”, the “recombinant barcode read abundance (log10)” value is reported as 1.23.
For “GTGCAAACTTGGGTTCTAACCTGTTGCCT (site GTGCACACTTG)”, the “recombinant barcode read abundance (log10)” value was 0.0968.
With “GTGCTTACTTGGGTTCTAACCTGTTGCCT (site GAGCTTACTAG)” the “recombinant barcode read abundance (log10)” value was 0.0771.
In the case of “GTGCTTACTTGGGTTCTAACCTGTTGCCT (site GCGCTTACTAG)”, the “recombinant barcode read abundance (log10)” value is reported as 0.0397.
With “GTGCTTACTTGGGTTCTAACCTGTTGCCT (site GGGCTTACTAG)” the “recombinant barcode read abundance (log10)” value was 0.0436.
With “GTGCTTACTTGGGTTCTAACCTGTTGCCT (site GTGCTTACTAG)” the “recombinant barcode read abundance (log10)” value was 0.538.
With “GTGGCTTCTTGGGTTCTAACCTGTTGCCT (site GAGGCTTCTAG)” the “recombinant barcode read abundance (log10)” value was 0.128.
With “GTGGCTTCTTGGGTTCTAACCTGTTGCCT (site GCGGCTTCTAG)” the “recombinant barcode read abundance (log10)” value was 0.248.
For “GTGGCTTCTTGGGTTCTAACCTGTTGCCT (site GGGGCTTCTAG)”, the “recombinant barcode read abundance (log10)” value was 0.132.
In the case of “GTGGCTTCTTGGGTTCTAACCTGTTGCCT (site GTGGCTTCTAG)”, the “recombinant barcode read abundance (log10)” value is reported as 0.389.
With “GTGTACCCTTGGGTTCTAACCTGTTGCGG (site GTGTACCCTAC)” the “recombinant barcode read abundance (log10)” value was 1.94.
